Source: ChEMBL document CHEMBL5360649, “Potential Broad-Spectrum Antimicrobial, Wound Healing, and Disinfectant Cationic Peptide Crafted from Snake Venom” (J Med Chem, 2023)
Activity calls are given as the source filed them. The calls are words filed in the database; no cut-off is given here.

Key:
[1] = tested on: Klebsiella pneumoniae; experiment: Antibiofilm activity against Klebsiella pneumoniae in the presence of Cl-; assay type: functional, organism-based
[2] = species: Rattus norvegicus; experiment: Induction of wound healing in surgically-induced Albino Wistar rat wound model assessed as dense epithelial-tissue layers at 10 uM measured after 11 days by H&E staining based analysis; assay type: functional; conditions: time 11.0 day
[3] = tested on: Pseudomonas aeruginosa; experiment: Induction of morphological changes in Pseudomonas aeruginosa at MIC concentration incubated for 6 hrs by SEM analysis; assay type: functional, organism-based
[4] = tested on: Staphylococcus aureus; experiment: Antibacterial activity against patient-derived methicillin-resistant Staphylococcus aureus assessed as inhibition of bacterial growth at 25 to 100 uM incubated overnight by spotting assay; assay type: functional, organism-based; conditions: dose 25-100 µM
[5] = tested on: Pseudomonas aeruginosa; experiment: Antibiofilm activity against Pseudomonas aeruginosa assessed as clearance of preformed biofilm at 1 times of MIC incubated for 24 hrs by CV staining based analysis relative to control; assay type: functional
[6] = tested on: Staphylococcus aureus; experiment: Induction of morphological changes in methicillin-resistant Staphylococcus aureus at MIC concentration incubated for 60 mins by SEM analysis; assay type: functional, organism-based
[7] = tested on: Pseudomonas aeruginosa; experiment: Antibiofilm activity against Pseudomonas aeruginosa in the presence of Na+; assay type: functional, organism-based
[8] = tested on: Escherichia coli; experiment: Antibacterial activity against Escherichia coli assessed as inhibition of bacterial growth at 1.25 to 40 uM by microtiter plate reader analysis; assay type: functional, organism-based; conditions: dose 1.25-40 µM, time 0.5-8.5 hrs, TDE = time-dependent effect
[9] = tested on: Klebsiella pneumoniae; experiment: Antibiofilm activity against Klebsiella pneumoniae assessed as biofilm eradication at 0.5 times of MIC incubated for 24 hrs by CV staining based analysis relative to control; assay type: functional
[10] = tested on: Pseudomonas aeruginosa; experiment: Induction of morphological changes in Pseudomonas aeruginosa assessed as inhibition of cell division by measuring filamented cells at MIC concentration incubated for 60 mins by SEM analysis; assay type: functional, organism-based
[11] = tested on: Pseudomonas aeruginosa; experiment: Antibacterial activity against patient-derived Pseudomonas aeruginosa assessed as inhibition of bacterial growth incubated for 24 hrs by CLSI protocol based microdilution method; assay type: functional
[12] = […] activity against LPS-induced human PBMC assessed as increase in cell number by measuring rise in cell proliferation percentage at 12.5 uM measured after 12 hrs by lymphocyte proliferation assay (12 hrs incubated Rvb = 478.774%); assay type: functional
[13] = tested on: Staphylococcus aureus; experiment: Induction of morphological changes in methicillin-resistant Staphylococcus aureus assessed as abnormal cell shrinkage at MIC concentration incubated for 60 mins by SEM analysis; assay type: functional, organism-based
[14] = tested on: Cell membrane; experiment: Induction of cytoplasmic membrane depolarization in Klebsiella pneumoniae assessed as increase in fluorescence intensity at 0.5 to 1 times of MIC incubated for 22 mins by DiSC3-5 dye based fluorescence method; assay type: subcellular
[15] = tested on: Klebsiella pneumoniae; experiment: Induction of morphological changes in carbapenem resistant Klebsiella pneumoniae ATCC BAA-1705 assessed as cellular destruction at MIC concentration incubated for 6 hrs by SEM analysis; assay type: functional, organism-based
[16] = tested on: Staphylococcus aureus; experiment: Induction of morphological changes in methicillin-resistant Staphylococcus aureus assessed as cellular destruction at MIC concentration incubated for 6 hrs by SEM analysis; assay type: functional, organism-based
[17] = tested on: Staphylococcus aureus; experiment: Antibiofilm activity against methicillin-resistant Staphylococcus aureus in the presence of Cl-; assay type: functional, organism-based
[18] = tested on: Pseudomonas aeruginosa; experiment: Antibacterial activity against Pseudomonas aeruginosa assessed as induction of cellular damage at MIC concentration incubated for 30 mins by SYTO9/PI staining based fluorescence microscopic analysis; assay type: functional, organism-based
[19] = tested on: Escherichia coli; experiment: Antibiofilm activity against Escherichia coli in the presence of Na+; assay type: functional, organism-based
[20] = tested on: Escherichia coli; experiment: Antibiofilm activity against Escherichia coli in the presence of Cl-; assay type: functional, organism-based
[21] = tested on: Staphylococcus aureus; experiment: Antibiofilm activity against methicillin-resistant Staphylococcus aureus assessed as biofilm eradication at 0.5 times of MIC incubated for 24 hrs by CV staining based analysis relative to control; assay type: functional
[22] = tested on: Pseudomonas aeruginosa; experiment: Bactericidal activity against patient-derived Pseudomonas aeruginosa assessed as reduction in bacterial growth incubated for 24 hrs by Mueller Hinton Agar based plate analysis; assay type: functional
[23] = Cytotoxicity against human MCF7 cells assessed as cell viability at 25 uM incubated for 24 hrs by MTT assay relative to control; assay type: toxicity, cell-based; conditions: read-out: Activity
[24] = tested on: Cell membrane; experiment: Induction of cytoplasmic membrane depolarization in Pseudomonas aeruginosa assessed as increase in fluorescence intensity at 0.5 to 1 times of MIC by DiSC3-5 dye based fluorescence method; assay type: subcellular
[25] = tested on: Escherichia coli; experiment: Induction of resistance development in Escherichia coli assessed as change in MIC at 0.5 times of MIC incubated with compound for 12 hrs followed by replacement with fresh medium for 12 hrs and measured after 20 repeated cycles; assay type: functional, organism-based; conditions: time 240.0 hrs
[26] = Cytotoxicity against human A549 cells assessed as cell viability at 25 uM incubated for 24 hrs by MTT assay relative to control; assay type: toxicity, cell-based; conditions: read-out: Activity
[27] = tested on: Cell membrane; experiment: Induction of inner membrane permeabilization in methicillin-resistant Staphylococcus aureus assessed as increase in fluorescence at 0.5 to 1 times of MIC incubated for 60 mins by PI staining based fluorescence analysis; assay type: subcellular
[28] = tested on: Pseudomonas aeruginosa; experiment: Induction of morphological changes in Pseudomonas aeruginosa at MIC concentration incubated for 60 mins by SEM analysis; assay type: functional, organism-based
[29] = tested on: Klebsiella pneumoniae; experiment: Antibacterial activity against carbapenem resistance Klebsiella pneumoniae ATCC BAA-1705 assessed as inhibition of bacterial growth at 1.25 to 40 uM by microtiter plate reader analysis; assay type: functional, organism-based; conditions: dose 1.25-40 µM, time 0.5-8.5 hrs, TDE = time-dependent effect
[30] = tested on: Cell membrane; experiment: Induction of inner membrane permeabilization in Klebsiella pneumoniae assessed as increase in fluorescence at 0.5 to 1 times of MIC incubated for 60 mins by PI staining based fluorescence analysis; assay type: subcellular
[31] = tested on: Staphylococcus aureus; experiment: Antibiofilm activity against preformed biofilm in methicillin-resistant Staphylococcus aureus assessed as decrease in metabolic activity at MIC incubated overnight by MTT assay; assay type: functional, organism-based
[32] = tested on: Staphylococcus aureus; experiment: Antibacterial activity against methicillin resistant Staphylococcus aureus assessed as inhibition of bacterial growth at 1.25 to 40 uM incubated for 8 hrs by microtiter plate reader analysis; assay type: functional, organism-based; conditions: dose 1.25-40 µM
[33] = tested on: Klebsiella pneumoniae; experiment: Induction of morphological changes in carbapenem resistant Klebsiella pneumoniae ATCC BAA-1705 assessed as membrane damage at MIC concentration incubated for 60 mins by SEM analysis; assay type: functional, organism-based
[34] = species: Rattus norvegicus; experiment: Induction of wound healing in surgically-induced Albino Wistar rat wound model assessed as proper formation of hair follicles at 10 uM measured after 11 days by H&E staining based analysis; assay type: functional; conditions: time 11.0 day
[35] = tested on: Klebsiella pneumoniae; experiment: Induction of morphological changes in carbapenem resistant Klebsiella pneumoniae ATCC BAA-1705 assessed as inhibition of cell division by measuring elongated cells at MIC concentration incubated for 60 mins by SEM analysis; assay type: functional, organism-based
[36] = tested on: Klebsiella pneumoniae; experiment: Antibacterial activity against Klebsiella pneumoniae assessed as cell division block by measuring cellular elongation at 0.5 to 1 times of MIC incubated for 30 mins by SYTO9/PI staining based fluorescence microscopic analysis; assay type: functional, organism-based
[37] = tested on: Staphylococcus aureus; experiment: Antibacterial activity against methicillin resistant Staphylococcus aureus assessed as inhibition of bacterial growth at 1.25 to 40 uM by microtiter plate reader analysis; assay type: functional, organism-based; conditions: dose 1.25-40 µM, time 0.5-8.5 hrs, TDE = time-dependent effect
[38] = tested on: Staphylococcus aureus; experiment: Induction of morphological changes in methicillin-resistant Staphylococcus aureus assessed as cellular destruction at MIC concentration incubated for 6 hrs by AFM analysis; assay type: functional, organism-based
[39] = tested on: Klebsiella pneumoniae; experiment: Antibiofilm activity against preformed biofilm in Klebsiella pneumoniae assessed as decrease in metabolic activity at MIC incubated overnight by MTT assay; assay type: functional, organism-based
[40] = tested on: Klebsiella pneumoniae; experiment: Antibacterial activity against Klebsiella pneumoniae assessed as cell division block by measuring bacterial filamentation at 0.5 to 1 times of MIC incubated for 30 mins by SYTO9/PI staining based fluorescence microscopic analysis; assay type: functional, organism-based

Substance: H-FLPIIKWVKKFFWRWR-OH
- Activity [1]: Active
- Activity [2]: Active
- Activity [3]: Active
- Activity [4]: Active
- Activity [5]: ~56%
- Activity [6]: Active
- Activity [7]: Active
- Activity [8]: Tde
- Activity [9]: ~62%
- Activity [10]: Active
- MIC [11]: 4 µM
- Activity [12]: 52.357%
- Activity [13]: Active
- Activity [14]: Active
- Activity [15]: Active
- Activity [16]: Active
- Activity [17]: Active
- Activity [18]: Active
- Activity [19]: Active
- Activity [20]: Active
- Activity [21]: ~70%
- MBC [22]: 6 µM
- viability at 24 h, 25 µM [23]: 63.8%
- Activity [24]: Active
- Activity [25]: inactive
- viability at 24 h, 25 µM [26]: 55.4%
- Activity [27]: Active
- Activity [28]: Active
- Activity [29]: Tde
- Activity [30]: Active
- Activity [31]: Active
- Activity [32]: Active
- Activity [33]: Active
- Activity [34]: Active
- Activity [35]: Active
- Activity [36]: Active
- Activity [37]: Tde
- Activity [38]: Active
- Activity [39]: Active
- Activity [40]: Active
